The record followed here is ChEMBL document CHEMBL5523737, “Novel Jatrophane Diterpenoids from Euphorbia esula Promotes Lipid Clearance by Transcriptional Regulation of PCSK9” (J Med Chem, 2024).

SMILES strings stand for the structures. Calls of active or inactive are those of the source. The calls are words filed in the database; no cut-off is given here. Where only a bound is given, the exact number is not on record here.

Series [1] deals with Proprotein convertase subtilisin/kexin type 9 (Homo sapiens) (UniProt Q8NBP7). Nature of the series: Inhibition of PCSK9 transcription in human HepG2 cells at 5 uM by AlphaLISA method. It is filed as cell-based. (Alpha assays give light when donor and acceptor beads are brought close together.)
Series [2] has the same target. Description: Inhibition of PCSK9 transcription in human HepG2 cells by AlphaLISA method. In kind it is cell-based.
Series [3] deals with HepG2. Nature of the series: Induction of LDL uptake in human HepG2 cells incubated for 3 hrs under dark condition by DiI-LDL DMEM staining based fluorescence microplate reader assay. In kind it is functional, cell-based.
A short description of series [4]: Cytotoxicity against human HepG2 cells assessed as cell viability at 20 uM after 24 hrs by CCK8 assay. The conditions noted are these: read-out: Activity. In kind it is toxicity, cell-based. Background: Tetrazolium dyes change colour on reduction, which living cells bring about.
The test system of series [5] is HepG2. Nature of the series: Induction of LDL uptake in HNF1alpha knockdown human HepG2 cells at 5 uM incubated for 3 hrs under dark condition by DiI-LDL DMEM staining based fluorescence microplate reader assay. In kind it is functional, cell-based.
Series [6] addresses Proprotein convertase subtilisin/kexin type 9 (Homo sapiens) (UniProt Q8NBP7). Nature of the series: Inhibition of PCSK9 (unknown origin) promoter activity expressed in HEK293 cells co-transfected with SV40 at 5 to 10 uM incubated for 24 hrs by dual luciferase assay. In kind it is cell-based. The conditions noted are these: dose 5-10 µM.

Broadly, the inhibition is the drop in the measured response relative to a control, in per cent. `C=C1[C@@H](OC(C)=O)[C@H]2[C@@H](OC(C)=O)[C@@H](C)C[C@]2(OC(C)=O)C(=O)[C@H](C)/C=C/C(C)(C)[C@H](OC(=O)c2ccccc2)[C@@H](OC(C)=O)[C@H]1OC(C)=O` yielded an inhibition in series [1] of 3.1%.
Compound `C=C1[C@@H](OC(C)=O)[C@H]2[C@@H](OC(C)=O)[C@@H](C)C[C@]2(OC(C)=O)C(=O)[C@H](C)/C=C/C(C)(C)[C@H](OC(C)=O)[C@@H](OC(C)=O)[C@H]1OC(C)=O` registered an inhibition in series [1] of 0.1%.
As for `C=C1[C@@H](OC(C)=O)[C@H]2[C@@H](OC(C)=O)[C@](C)(OC(=O)Cc3ccccc3)C[C@]2(OC(C)=O)C(=O)[C@H](C)/C=C/C(C)(C)[C@H](OC(=O)c2cccnc2)C[C@H]1OC(=O)C(C)C`, the inhibition in series [1] was 56.1%; in series [2] it was “Dose-Dependent Effect”. Moreover, the result in the series on HepG2 [3] and with HepG2 [5] was Active. The viability at 24 h, 20 µM in series [4] is more than 95%. In series [6], the inhibition entry is “Active”.
In the case of `C=C1[C@@H](OC(C)=O)[C@H]2[C@@H](OC(C)=O)[C@](C)(OC(C)=O)C[C@]2(OC(C)=O)C(=O)[C@H](C)[C@]2(C)O[C@H]2C(C)(C)[C@H](OC(C)=O)[C@@H](OC(=O)C(C)C)[C@H]1OC(=O)C(C)C`, the inhibition in series [1] was determined as 0.1%.
Turning to `C=C1[C@@H](OC(C)=O)[C@H]2[C@@H](OC(=O)[C@@H](C)CC)[C@@H](C)C[C@]2(OC(C)=O)C(=O)[C@H](C)/C=C/C(C)(C)[C@H](OC(C)=O)[C@@H](OC(C)=O)[C@H]1OC(C)=O`, the inhibition is 56.1% in series [1] and “Dose-Dependent Effect” in series [2]. The result in the series on HepG2 [3] and with HepG2 [5] was Active. In series [4], the viability at 24 h, 20 µM is more than 95%. For the same compound, in series [6], the inhibition entry is “Active”.
As for `C=C1[C@@H](OC(C)=O)[C@H]2[C@@H](OC(C)=O)[C@@H](C)C[C@]2(OC(C)=O)C(=O)[C@H](C)/C=C/C(C)(C)C(=O)[C@@H](OC(C)=O)[C@H]1OC(C)=O`, the inhibition in series [1] is less than 1%.
With `C=C1[C@@H](OC(C)=O)[C@H]2[C@@H](OC(C)=O)[C@](C)(OC(C)=O)C[C@]2(OC(C)=O)C(=O)[C@H](C)[C@]2(C)O[C@H]2C(C)(C)[C@H](OC(C)=O)[C@@H](OC(C)=O)[C@H]1OC(=O)C(C)C`, the inhibition in series [1] came to 1.2%.
